Data taken from patent US7241803B2, “Compounds for inhibition of HIV infection by blocking HIV entry” (New York Blood Center, priority 2002, dated 2007).

Legend:
[1] = system: 5.25M7 & PBMCs infected by 93UG065 (clade D, X4R5)
Procedure: (§1) Inhibition of fusion between PBMCs infected by primary HIV-1 strains (X4 and R5 viruses) with CEMx174 5.25 M7 cells, which express CD4 and both coreceptors, CXCR4 and CCR5, was determined by a luciferase assay. Briefly, 50 μl of compound at graded concentration in triplicate was incubated with equal volume of PHA-stimulated PBMCs (1×10^5/ml) infected by corresponding primary HIV-1 strains, respectively, for 7 days as described above. After incubation at 37° C. for 30 min, 100 μl of CEMx174 5.25 M7 cells (2×10^5) were added and incubated at 37° C. for three days. The cells were collected, washed, and lysed with the lysing reagent included in the luciferase kit (Promega, Corp., Madison, Wis.). Aliquots of cell lysates were transferred to 96-well flat-bottom luminometer plates (Costar, Corning Inc., Corning, N.Y.), followed by addition of luciferase substrate (Promega). The luciferase activity was measured in the Ultra 384 luminometer (Tecan).

[2] = system: 5.25M7 & PBMCs infected by 93BR020 (clade F, X4R5)
Procedure: as §1

[3] = system: 5.25M7 & PBMCs infected by CMU02 (clade E, R5)
Procedure: as §1

[4] = system: 5.25M7 & PBMCs/SF162 (clade B, R5)
Procedure: as §1

[5] = system: 5.25M7 & PBMCs infected by 93IN101 (clade C, R5)
Procedure: as §1

[6] = system: 5.25M7 & PBMCs infected by BCF02 (Group O, R5)
Procedure: as §1

[7] = system: 5.25M7 & PBMCs infected by 92UG029 (clade A, X4)
Procedure: as §1

[8] = system: 5.25M7 & PBMCs infected by 92UG657 (clade B, R5)
Procedure: as §1

[9] = system: 5.25M7 & PBMCs infected by 93TH051 (clade E, X4R5)
Procedure: as §1

gp120-CD4 binding = molecular target: T1, gp120-CD4 binding (Human immunodeficiency virus type 1 group M subtype B, UniProt P03375); set-up: species or system HIV-1; settings: 10 μg/ml
T1 construct: purchased Immunodiagnostics, Woburn, Mass; (gp120); Genentech Inc., South San Francisco, Calif; (sCD4)
Procedure: Inhibition of gp120 binding to CD4. Wells of polystyrene plates was coated with 100 μl of sheep anti-gp120 antibody D7324 (Cliniqa, Fallbrook, Calif.) at 2 μg/ml in carbonate buffer (pH 9.6) at 4° C. overnight and blocked with 1% dry fat-free milk in PBS at 37° C. for 1 h. One hundred microliters of recombinant gp120 molecule (Immunodiagnostics, Woburn, Mass.) at 0.5 μg/ml in PBS was added and incubated at 37° C. for 1 h, followed by three washes with PBS-T. Soluble CD4 (sCD4) at 0.25 μg/ml was added in the presence of a compound (25 μM) and incubated at 37° C. for 1 h. After three washes, rabbit anti-sCD4 IgG (0.25 μg/ml in PBS, 100 μl/well) was added and incubated at 37° C. for 1 h. Binding of rabbit anti-sCD4 IgG was determined by sequential addition of biotinylated goat-anti-rabbit IgG, SA-HRP, and TMB. After the reactions were terminated, absorbance at 450 nm was recorded in an ELISA reader (Tecan).
HIV-1 envelope glycoprotein gp120 was captured by the anti-gp120 antibody coated onto wells of polystyrene plates. […] After extensive washes, CD4 molecule bound to gp120 was quantitated by ELISA using anti-CD4 antibody.

[10] = molecular target: gp41 six-helix bundle formed by N36 and C34 (Human immunodeficiency virus type 1 group M subtype B, UniProt P04578); settings: for inhibitory activity on gp41 six-helix bundle formation (sandwich ELISA): graded concentrations, up to 80 μg/ml, compound preincubated with N36; for inhibition of six-helix bundle formation between N36 and C34 (screening ELISA): single dose 25 μg/ml
Chain of gp41 six-helix bundle formed by N36 and C34 (P04578 546-581): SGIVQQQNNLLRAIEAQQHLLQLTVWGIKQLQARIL
Procedure: ELISA for screening for compounds that inhibit the gp41 six-helix bundle formation. A sandwich ELISA as previously described (23) was used to screen for compounds that inhibit the gp41 six-helix bundle formation. Briefly, peptide N36 (2 μM) was pre-incubated with a test compound at the indicated concentrations at 37° C. for 30 min, followed by addition of C34 (2 μM). In the control experiments, N36 was pre-incubated with C34 at 37° C. for 30 min, followed by addition of the test compound. After incubation at 37° C. for 30 min, the mixture was added to wells of a 96-well polystyrene plate (Costar, Corning Inc., Corning, N.Y.) which were precoated with IgG (2 μg/ml) purified from rabbit antisera directed against the N36/C34 mixture. […] Absorbance at 450 nm was measured using an ELISA reader (Ultra 384, Tecan, Research Triangle Park, N.C.). The percent inhibition by the compounds was calculated as previously described (18) and the concentration for 50% inhibition (IC50) was calculated using the software designated Calcusyn (7), kindly provided by Dr. T. C. Chou (Sloan-Kettering Cancer Center, New York, N.Y.).

[11] = system: H9/HIV-1IIIB cells cocultured with MT-2 cells; assay: syncytium-formation assay for screening HIV-1 fusion inhibitors; format: cell-based; settings: single dose 25 μg/ml
Description: Syncytium-formation assay for screening HIV-1 fusion inhibitors. […] HIV-1 induced syncytium formation was observed under an inverted microscope and scored as “−” (no syncytium was observed), “±” (about 50% syncytia were inhibited), and “+” (no syncytium formation was inhibited). The compounds scored with “−” and “±” were selected for further screening by ELISA for inhibitors against the gp41 six-helix bundle formation.

[12] = system: MT-2 & H9/HIV-1IIIB (clade B, X4); assay: cell-cell fusion, dye transfer assay; format: cell-based; settings: MT-2 & H9/HIV-1IIIB (clade B, X4)
Procedure: Inhibition of cell-cell fusion. A dye transfer assay was used for detection of HIV-1 mediated cell fusion as previously described (21, 24, 34). H9/HIV-1IIIB cells were labeled with a fluorescent reagent, Calcein-AM (Molecular Probes, Inc., Eugene, Oreg.) and then incubated with MT-2 cells (ratio=1:5) in 96-well plates at 37° C. for 2 hrs in the presence or absence of compounds tested. The fused and unfused Cacein-labeled HIV-1-infected cells were counted under an inverted fluorescence microscope (Zeiss, Germany) with an eyepiece micrometer disc. The percentage of inhibition of cell fusion and the IC50 values were calculated as previously described (21).

Row | Compound | IC50 (μg/ml) for inhibition of cell-cell fusion [1] | IC50 (μg/ml) for inhibition of cell-cell fusion [2] | IC50 (μg/ml) for inhibition of cell-cell fusion [3] | IC50 (μg/ml) for inhibition of cell-cell fusion [4] | IC50 (μg/ml) for inhibition of cell-cell fusion [5] | IC50 (μg/ml) for inhibition of cell-cell fusion [6] | IC50 (μg/ml) for inhibition of cell-cell fusion [7] | IC50 (μg/ml) for inhibition of cell-cell fusion [8] | IC50 (μg/ml) for inhibition of cell-cell fusion [9] | inhibition of gp120-CD4 binding (gp120-CD4 binding) | inhibitory activity on gp41 six-helix bundle formation (sandwich ELISA) [10] | inhibition of six-helix bundle formation between N36 and C34 (screening ELISA) [10] | inhibition of HIV-1 mediated syncytium formation [11] | IC50 (μg/ml) for inhibition of cell-cell fusion [12]
1 | Cc1ccc(C)n1-c1ccc(C(=O)O)c(O)c1 [NB-2] | 6.07 ± 0.07 µg/mL | 1.66 ± 0.07 µg/mL | 8.14 ± 1.09 µg/mL | 4.86 ± 0.34 µg/mL | 3.27 ± 0.18 µg/mL | 0.93 ± 0.57 µg/mL | 2.50 ± 0.02 µg/mL | 6.64 ± 1.13 µg/mL | 1.76 ± 0.07 µg/mL | did not significantly inhibited | significantly inhibited | significantly inhibited | significantly inhibited | 1.53 ± 0.17 µg/mL
2 | O=C(O)c1cc(-n2cccc2)ccc1Cl [NB-64] | 20.77 ± 1.94 µg/mL | 2.24 ± 0.31 µg/mL | 4.89 ± 1.08 µg/mL | 20.86 ± 0.20 µg/mL | 18.26 ± 0.01 µg/mL | 10.30 ± 5.90 µg/mL | 2.21 ± 0.56 µg/mL | 39.00 ± 5.27 µg/mL | 12.72 ± 0.32 µg/mL | did not significantly inhibited | significantly inhibited | significantly inhibited | significantly inhibited | 2.02 ± 0.19 µg/mL
